Measurements reported in article PMC9014415, “Repositioning of a Diaminothiazole Series Confirmed to Target the Cyclin-Dependent Kinase CRK12 for Use in the Treatment of African Animal Trypanosomiasis” (Journal of Medicinal Chemistry, 2022).

Experiments:
[1] = Estimated EC99 used for PK/PD (parasite not stated); details: free blood level threshold
Description: Given promising in vivo efficacy data in mice (Table 1), compound 1 was progressed into cattle pharmacokinetic studies, dosing both IV and IM (Table 2, Figure S2, and Table S4). […] This low bioavailability was likely a consequence of poor compound release from the injection site following IM administration in cattle due to the low solubility of compound 1, probably leading to compound accumulation and precipitation at the injection site.

[2] = biological target: T1, Phosphoglycerate kinase (PGK) (Trypanosoma brucei brucei, UniProt P07378); assay: SILAC pull-down with resin-bound 13, competition by compound 2; assay type: binding; details: procyclic lysate; compound 2 10 μM vs DMSO; mean of three experiments
T1 construct: endogenous in cells; host or cells: Trypanosoma brucei procyclic form, whole-cell lysate
T1 sequence (P07378 whole entry): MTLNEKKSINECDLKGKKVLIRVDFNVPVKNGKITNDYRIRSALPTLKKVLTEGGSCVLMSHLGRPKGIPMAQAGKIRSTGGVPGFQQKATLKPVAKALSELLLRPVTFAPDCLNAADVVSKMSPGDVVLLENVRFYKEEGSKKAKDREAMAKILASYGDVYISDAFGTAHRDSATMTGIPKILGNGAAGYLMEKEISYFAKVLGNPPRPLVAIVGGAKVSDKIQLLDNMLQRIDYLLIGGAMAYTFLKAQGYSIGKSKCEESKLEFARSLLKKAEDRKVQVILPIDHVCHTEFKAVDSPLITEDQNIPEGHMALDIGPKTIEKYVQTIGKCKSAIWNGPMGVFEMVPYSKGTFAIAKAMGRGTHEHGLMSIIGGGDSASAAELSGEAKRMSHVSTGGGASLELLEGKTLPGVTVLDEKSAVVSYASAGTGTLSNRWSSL
Procedure: (§1) Chemical proteomic studies were carried out by immobilizing an analogue of compound 2 (probe 13; Figure 3A and Scheme 4) to magnetic beads via a polyethyleneglycol (PEG) linker. Appropriate attachment sites for the PEG linker were informed by the established structure–activity relationships within this series, and an advanced intermediate toward the final derivatized compound was screened against both bloodstream and procyclic forms of T. brucei to ensure that it retained potency. The analogue was immobilized by attachment to NHS-ester-activated paramagnetic beads. Activated beads were then incubated in SILAC (stable isotope labeling by amino acids in cell culture)-labeled T. brucei procyclic whole-cell lysates in the presence or absence of compound 2 (10 μM) with either “light-“ or “heavy”-labeled lysate. After combining the eluates from the beads and performing proteomic analyses, proteins that bound specifically to the diaminothiazole pharmacophore were distinguished from proteins that bound non-specifically to the beads by virtue of compound 2:DMSO tryptic peptide isotope ratios. As a result of these studies, four kinases and a cyclin were identified as specific binders of the compound 2-derivatized beads (Figure 3B and Table S11). It should be noted that of the four kinases identified, only CRK12 has been established as essential for survival of T. brucei.[14] […]

[3] = system: Cdc2-related kinase 12 (CRK12); assay: as above; assay type: binding, Trypanosoma brucei; details: procyclic lysate; compound 2 10 μM vs DMSO; mean of three experiments
Procedure: as §1
(§2) Trypanosoma brucei procyclic form parasites were grown in SDM-79 media (SILAC SDM-79, 2 g/L NaHCO3, 7.5 mg haemin, 1% glutamax and 15% dialysed FBS) with either light or heavy isotopes for 6-9 divisions (6 days) to a density of ~3 x 10^7 cells/ml. A total of 3 x10^8 cells were washed thrice with PBS. Buffer 1 (0.1 mM tosyl phenylalanyl chloromethyl ketone, 1 µg/ml leupeptin, 1 mM aprotinin, 1 mM phenylmethylsulfonyl fluoride, 1x Roche Complete protease inhibitors) was added to the parasite pellet, followed by Buffer 2 (100 mM Tris pH 7.5, 10% glycerol, 300 mM NaCl, 3 mM MgCl2, 1.6% IGEPAL® CA-630, 2 mM dithiothreitol) and incubated at 4 °C for 20 min. Lysates were centrifuged at 100,000 g at 4 °C for 1 h. Beads (blank and compound-bound) were washed twice with water and twice with lysis buffer (Buffer 1 and 2). Lysates were incubated with 2 mg blank beads for 30 min at 4 °C. Lysates were then incubated with either 10 µM DDD00770675 or 1% DMSO for 30 min at 4 °C. Finally, lysates were incubated with 2 mg of bound compound for 1 h at 4 °C. Beads were washed three times with wash buffer (0.5% IGEPAL® CA-630, 50 mM Tris pH 8.0, 5 mM EDTA, 1 mg/ml BSA) and twice with Tris-buffered saline. Samples were combined, run 1.5 cm into a Brs-TRIS 10% acrylamide gel and stained with Coomassie quick reagent for 1 h. Gel bands were subjected to in-gel reduction with 10 mM dithiothreitol, alkylation with 50 mM iodoacetamide and digestion with 12.5 μg/mL trypsin (Pierce) for >16h at 37°C. Recovered tryptic peptides were vacuum […]
(§3) 4.5 Peptide fractionation and LC-MS/MS analysis
(§4) Peptides were fractionated using High pH RP Chromatography. A C18 Column from Waters (XBridge peptide BEH, 130Å, 3.5 µm 2.1 x 150 mm, Waters, Ireland) with a guard column (XBridge, C18, 3.5 µm, 2.1 ×10 mm, Waters) were used on a Ultimate 3000 HPLC (Thermo-Scientific). Buffers A and B used for fractionation consist, respectively, of (A) 10mM ammonium formate in milliQ water pH 9.5 and (B) 10 mM ammonium formate, pH 9.5 in 90% acetonitrile. Fractions were collected using a WPS-3000FC auto-sampler (Thermo-Scientific) at 1 min intervals. Column and guard column were equilibrated with 2% Buffer B for twenty minutes at a constant flow rate of 0.2 mL/min. Peptides (190 µL) were injected onto the column, and the separation gradient was started 1 min after sample was loaded onto the column. Peptides were eluted from the column with a gradient of 2% Buffer B to 60% Buffer B in 53 min. The column was washed for 15 min in 100% Buffer B and equilibrated at […]
(§5) 2% Buffer B for 20 min. […]

[4] = system: MAP kinase 6 (MAPK6); assay: as above; assay type: binding, Trypanosoma brucei; details: procyclic lysate; compound 2 10 μM vs DMSO; mean of three experiments
Procedure: as §1, §2, §3, §4, §5

[5] = system: Cdc-2 related kinase 11 (CRK11); assay: as above; assay type: binding, Trypanosoma brucei; details: procyclic lysate; compound 2 10 μM vs DMSO; mean of three experiments
Procedure: as §1, §2, §3, §4, §5

[6] = system: Inositol polyphosphate kinase-like protein (IPPK); assay: as above; assay type: binding, Trypanosoma brucei; details: procyclic lysate; compound 2 10 μM vs DMSO; mean of three experiments
Procedure: as §1, §2, §3, §4, §5

[7] = system: MAP kinase 4 (MAPK4); assay: as above; assay type: binding, Trypanosoma brucei; details: procyclic lysate; compound 2 10 μM vs DMSO; mean of three experiments
Procedure: as §1, §2, §3, §4, §5

[8] = system: Cyclin 9 (CYC9); assay: as above; assay type: binding, Trypanosoma brucei; details: procyclic lysate; compound 2 10 μM vs DMSO; mean of three experiments
Procedure: as §1, §2, §3, §4, §5

[9] = system: MAP kinase 9, putative (MAPK9); assay: as above; assay type: binding, Trypanosoma brucei; details: procyclic lysate; compound 2 10 μM vs DMSO; mean of three experiments
Procedure: as §1, §2, §3, §4, §5

| SMILES | estimated EC99 [1] | Log2 ratio DMSO/compound [2] | Log2 ratio DMSO/compound [3] | Log2 ratio DMSO/compound [4] | Log2 ratio DMSO/compound [5] | Log2 ratio DMSO/compound [6] | Log2 ratio DMSO/compound [7] | Log2 ratio DMSO/compound [8] | Log2 ratio DMSO/compound [9] |
| --- | --- | --- | --- | --- | --- | --- | --- | --- | --- |
| CC(C)CS(=O)(=O)N[C@H]1CC[C@H](Nc2nc(N)c(C(=O)c3c(F)cccc3F)s2)CC1 [Compound 1, N-((trans)-4-((4-Amino-5-(2,6-difluorobenzoyl)thiazol-2-yl)amino)cyclohexyl)-2-methylpropane-1-sulfonamide] | 1.6 ng/mL | – | – | – | – | – | – | – | – |
| CC(C)CS(=O)(=O)N[C@H]1CC[C@H](Nc2nc(N)c(C(=O)c3c(F)cc(CN(C)C)cc3F)s2)CC1 [Compound 2, N-(trans)-[4-[[4-Amino-5-[4-(dimethylaminomethyl)-2,6-difluoro-benzoyl]thiazol-2-yl]amino]cyclohexyl]-2-methyl-propane-1-sulfonamide] | – | 1.92 | 3.47 | 1.62 | 3.57 | 1.85 | 2.84 | 3.16 | 4.15 |
